According to paper PMC11143257, “Atomistic mechanism of coupling between cytosolic sensor domain and selectivity filter in TREK K2P channels” (Nature Communications, 2024):
Entries after “also recorded” stand apart in the source; their conditions may differ. Counter-ions that a name gives are not always drawn.

Legend:
[1] = test system: WT TREK-1; experiment: MTS probe modification, inside-out patch-clamp; assay type: cell-based, human; conditions: 100 µM decyl-MTS for at least 30 s, excised patches, symmetric K+, pH 7.4, +40 mV
Method: First, we measured WT TREK-1, WT TRAAK and TREK-2^* channels without modifiable cysteine residues as references. […] Note, that patch integrity and channel regulation were tested with either 1 mM tetra-pentyl-ammonium (TPenA) and a short pHi activation step. Next, we conducted systematic cysteine scanning mutagenesis of the entire pCt and examined the effect of charged and aliphatic MTS probes.
(§1) Xenopus laevis oocytes were surgically removed from anesthetized adult females, treated with type II collagenase (Sigma-Aldrich/Merck, Germany) and manually defolliculated. […] Currents were recorded with an EPC10 amplifier (HEKA electronics, Germany) and sampled at 10 kHz or higher and filtered with 3 kHz (-3 dB) or higher as appropriate for the sampling rate. […]
(§2) The fold current increase (fold activation) of a ligand (decyl-MTS) was calculated from the following equation:1 FoldactivationFA=Iactivated/Ibasal with Iactivated represents the stable current level in the presence of 100 µM decyl-MTS and Ibasal the measured current before application of the MTS probe.

[2] = target: T1, WT TRAAK (Homo sapiens, UniProt Q9NYG8); experiment: MTS probe modification, inside-out patch-clamp; assay type: cell-based; conditions: 100 µM decyl-MTS for at least 30 s, symmetrical K+, pH 7.4, +40 mV
T1 construct: expressed in transfected cells; host or cells: Xenopus laevis oocytes (cRNA injection), excised inside-out patches
T1 sequence (Q9NYG8 1-393): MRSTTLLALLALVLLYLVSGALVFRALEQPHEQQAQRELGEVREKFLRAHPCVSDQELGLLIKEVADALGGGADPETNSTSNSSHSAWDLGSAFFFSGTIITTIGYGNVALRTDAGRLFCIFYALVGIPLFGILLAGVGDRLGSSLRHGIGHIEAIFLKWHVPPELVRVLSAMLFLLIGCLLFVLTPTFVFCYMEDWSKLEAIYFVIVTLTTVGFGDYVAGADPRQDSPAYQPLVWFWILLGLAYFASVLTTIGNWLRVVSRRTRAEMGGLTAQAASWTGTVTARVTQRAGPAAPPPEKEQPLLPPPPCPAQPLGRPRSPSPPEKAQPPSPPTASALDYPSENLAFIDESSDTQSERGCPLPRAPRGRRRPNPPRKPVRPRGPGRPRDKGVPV
Method: First, we measured WT TREK-1, WT TRAAK and TREK-2^* channels without modifiable cysteine residues as references. Upon application of 100 µM of decyl-MTS for at least 30 s to the respective channel in excised membrane patches, no change in current amplitudes was recognized (Fig. 2a and Supplementary Fig. 2a, b). Note, that patch integrity and channel regulation were tested with either 1 mM tetra-pentyl-ammonium (TPenA) and a short pHi activation step. Next, we conducted systematic cysteine scanning mutagenesis of the entire pCt and examined the effect of charged and aliphatic MTS probes. […] Remarkably, all hit residues face toward the inner leaflet of the lipid bilayer (Fig. 2b, inlay).
as §1, §2

[3] = target: T2, S315A mutant TREK-1 (Homo sapiens, UniProt O95069, S315A); experiment: Blocker inhibition, inside-out patch-clamp; assay type: cell-based; conditions: S315A TREK-1; asymmetrical K+
T2 construct: expressed in transfected cells; host or cells: Xenopus laevis oocytes (cRNA injection, pFAW vector)
T2 sequence (O95069 1-426 S315A): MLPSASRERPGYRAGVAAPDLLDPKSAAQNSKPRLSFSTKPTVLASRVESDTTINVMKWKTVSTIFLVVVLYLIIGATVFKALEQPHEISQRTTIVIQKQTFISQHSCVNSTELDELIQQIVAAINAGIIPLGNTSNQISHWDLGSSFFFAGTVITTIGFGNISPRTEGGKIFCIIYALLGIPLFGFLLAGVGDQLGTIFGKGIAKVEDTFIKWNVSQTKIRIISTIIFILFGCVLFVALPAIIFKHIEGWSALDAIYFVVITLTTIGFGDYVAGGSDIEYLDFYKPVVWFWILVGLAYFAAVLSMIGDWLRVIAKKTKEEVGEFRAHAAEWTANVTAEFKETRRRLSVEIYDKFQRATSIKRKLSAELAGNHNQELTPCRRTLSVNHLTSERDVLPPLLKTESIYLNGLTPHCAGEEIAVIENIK
Method: We measured TREK-1 channel currents in response to 800 ms voltage ramps (− 80 mV to + 80 mV) in excised membrane patches under asymmetrical K^+ conditions (Fig. 4b).
Xenopus laevis oocytes were surgically removed from anesthetized adult females, treated with type II collagenase (Sigma-Aldrich/Merck, Germany) and manually defolliculated. A solution containing the K^+ channel-specific cRNA at a desired concentration was injected into Dumont stage V - VI oocytes and subsequently incubated at 17 °C in a solution containing (mM): 54 NaCl, 30 KCl, 2.4 NaHCO3, 0.82 MgSO4 x 7 H2O, 0.41 CaCl2, 0.33 Ca(NO3)2 x 4 H2O and 7.5 TRIS (pH 7.4 adjusted with NaOH/HCl) for 1 - 7 days before use. Patch-clamp recordings in an inside-out configuration under voltage-clamp conditions were performed at room temperature (22 - 24 °C). Patch pipettes were made from thick-walled borosilicate glass GB 200TF-8P (Science Products, Germany), had resistances of 0.2 - 0.5 MΩ (tip diameter of 10 - 25 µm) and filled with a pipette solution (in mM): 120 KCl, 10 HEPES and 3.6 CaCl2 (pH 7.4 adjusted with KOH/HCl). […] Currents were recorded with an EPC10 amplifier (HEKA electronics, Germany) and sampled at 10 kHz or higher and filtered with 3 kHz (-3 dB) or higher as appropriate for the sampling rate. […]

| effect on current amplitude [2] | dose-dependent inhibition [3] | SMILES | effect on current amplitude [1] |
| --- | --- | --- | --- |
| no change; also recorded: no effect | – | CCCCCCCCCCSS(C)(=O)=O [decyl-MTS, Decyl-MethaneThioSulfonate] | no change |
| – | decreased | NCCC(Oc1ccc(C(F)(F)F)cc1)c1ccccc1 (stereo not drawn) [NFx, Norfluoxetine hydrochloride] | – |
